Measured values taken from US11001558B2, “Asymmetric bisaminoquinolines and bisaminoquinolines with varied linkers as autophagy inhibitors for cancer and other therapy” (THE TRUSTEES OF THE UNIVERSITY OF PENNSYLVANIA, priority 2014, dated 2021).

Key:
[1] = system: autophagy; conditions: cited from earlier work
[2] = system: A375P melanoma cells; experiment: 72 hour alamar blue viability assay; type: cell-based; conditions: spermine or spermidine linker compared with Lys01
Experimental: […]. A375 P cells seeded in a 384 well format were treated with a 10 point dilution of concentrations (0.01 nM-10 uM) (B) Colony formation assay in soft agar. Cells from the indicated melanoma (A375, WM983B, SKMEL5) and pancreatic cancer (PANC1, CAPAN1) cell lines were plated in soft agar. Medium with compound was changed every 48 hours. Crystal violet staining was used to visualize formed colonies after 2 weeks.
A375P melanoma cells were plated in a 384 well format and treated with increasing concentrations of […] derivatives. After 72 hours the cells were analyzed by alamar blue. Complete data is in Table 1, FIG. 10. (A) IC50 according to symmetry of linker (B) IC50 by linker length.
[…]. After 72 hours incubation at 37 degrees, Alamar blue was applied and viability was determined using absorbance. Absorbance was normalized to DMSO control, and a log IC50 was estimated using Graphpad Prism software.
. After 72 hours incubation at 37 degrees, Alamar blue was applied and viability was determined using absorbance. Absorbance was normalized to DMSO control, and a log IC50 was estimated using Graphpad Prism software (FIG. 11, Table 1). LN229 cells produced similar data (data not shown). The increased cytotoxicity of longer linker and asymmetric compounds was confirmed in a 2 week colony formation assay using 5 different cell lines (FIG. 1B). Analysis of the cytotoxicity findings alone elucidated some key features of potential structure activity relationships. First, substitution of the central nitrogen substitution beyond methyl reduces activity. Second, there was no clear advantage of assymetric versus symmetric linkers (FIG. 2A) with regards to cytotoxicity alone. […]

[3] = system: A375P mCherry-eGFP-LC3 cells; experiment: Flow cytometry green/red ratio, inhibition of autophagic flux; type: cell-based; conditions: for inhibition of autophagic flux (green/red ratio): 1 uM compound, 24 hours
From the text: PLX: PLX4720; TRA: trametinib.

[4] = system: A375 cells; experiment: Apoptosis by annexin V detection; conditions: for apoptosis (annexin V): 1 uM compound, 24 hour timepoint
Experimental: (C) Apoptosis reflected by annexin V detection in A375 cells treated with 1 uM compound at the 24 hours. (D) Apoptosis reflected by annexin V detection in A375 cells treated with indicated compounds at 3 uM for 24 or 48 hours.

[5] = system: A375 cells; experiment: Flow cytometry quantification of reactive oxygen species (DHR_123 fluorescence); conditions: 1 uM compound, 24 hours
[6] = system: A375P mCherry eGFP-LC3 cells grown into 3 dimensional spheroids; experiment: 3D spheroid growth and invasion in collagen; type: cell-based; conditions: 3 uM, 72 hours
Experimental: A375P mCherry eGFP-LC3 cells grown into 3 dimensional spheroids and implanted in collagen. After 72 hours of treatment with 3 uM of indicated compound, cells were counterstained with DAPI. (A) fluorescence microscopy was used to visualize autophagy inhibition (bright areas), inhibition of invasion into the collagen and (B) quantification of the DAPI fluorescence indicative of cell death. *p<0.05
The 3D spheroid model has been used extensively to mimic the tumor microenvironment (Ma et al Clin Can Research 2011). Autophagy levels are more reflective of in vivo autophagy dynamics in the 3D models compared to traditional two dimensional cell culture. In this format cancer cells are grown as spheroids and then implanted in a collagen matrix. The spheroids then begin to invade and grow within this tissue microenvironment.

[7] = system: melanoma cell lines; experiment: LC3B and actin immunoblotting (LC3II/actin quantification); conditions: 1 uM, 24 hours, 3 melanoma cell lines, compared with Lys05
Experimental: Each compound was administered at 1 uM concentrations for 24 hours.
As an initial method of determining the effects of the longer linker compounds on autophagic vesicle accumulation, a series of most cytotoxic dimeric CQ's were used to treat 3 different cell lines (1 uM, 24 hours). Cell lysates were collected and immunoblotting against LC3 and actin as performed (FIG. 4).

Structure (SMILES) | potency on replacement of the Lys01 linker with longer linkers [2] | inhibition of autophagic flux (green/red ratio) [3] | apoptosis (annexin V) [4] | ROS (DHR_123 fluorescence) [5] | further results
CCN(CCO)CCCC(C)Nc1ccnc2cc(Cl)ccc12 (centres unmarked) [HCQ, hydroxychloroquine] | – | – | – | – | concentrations required to inhibit autophagy [1]: High micromolar concentrations
Clc1ccc2c(NCCCCNCCCNc3ccnc4cc(Cl)ccc34)ccnc2c1 [Lys21] | significant increases in potency | most effective at inhibiting autophagic flux | most apoptosis | – | autophagy inhibition compared to comparable symmetric compounds [3]: superior autophagy inhibition; ability to induce apoptosis compared to comparable symmetric compounds [4]: superior
CN(CCCCNc1ccnc2cc(Cl)ccc12)CCCNc1ccnc2cc(Cl)ccc12 [Lys26] | significant increases in potency | – | – | highest levels of ROS | –
CN(CCCCCCNc1ccnc2cc(Cl)ccc12)CCCCCCNc1ccnc2cc(Cl)ccc12.Cl [Lys75] | – | most effective at inhibiting autophagic flux | most apoptosis | highest levels of ROS | inhibition of growth and invasion of 3D spheroids [6]: most potent compound at inhibiting growth and invasion; LC3II/actin [7]: most consistent and substantial increase
CN(CCCCN(C)CCCNc1ccnc2cc(Cl)ccc12)CCCNc1ccnc2cc(Cl)ccc12 [Lys 25] | significant increases in potency | – | – | – | –
